Test results as given in US8304382B2, “Anti-inflammatory and anti-allergic cyclic peptides” (Cristalia Productos Quimicos Farmaceuticos Ltda., priority 2006, dated 2012).
Bridge positions count the residues as written; N and C are the ends. Peptide text beside a SMILES is read from it.

Legend:
trypsin = molecular target: T1, trypsin (Bos taurus, UniProt P00760); test: Inhibition of trypsin, determination of inhibition constants (Ki); format: biochemical
T1 construct: gene PRSS1
T1 sequence (P00760 24-246): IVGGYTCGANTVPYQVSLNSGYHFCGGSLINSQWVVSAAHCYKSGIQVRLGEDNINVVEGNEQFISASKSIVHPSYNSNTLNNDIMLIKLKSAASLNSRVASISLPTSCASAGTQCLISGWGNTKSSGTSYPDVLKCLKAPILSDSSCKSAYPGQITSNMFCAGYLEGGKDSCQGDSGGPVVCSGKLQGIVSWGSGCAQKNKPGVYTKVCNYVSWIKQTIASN
Experimental: The substrate utilized was Abz-Phe-Arg-Ser-Ser-Arg-Gln-EDDnp (SEQ ID NO: 11), a fluorescent analog of bradykinin, purified by way of high pressure liquid chromatography, (HPLC) until purity greater than 95% (single peak) was achieved.
The hydrolysis reactions were conducted using a Hitachi. F-2000 spectrofluorometer, with the excitation and emission slits set at 10 and 20 nm, and the excitation and emission wavelengths at 320 and 420 nm, respectively. The temperature of the reaction cuvette was maintained at 37° C. in a thermostatically controlled compartment.
The enzymatic activity of trypsin (0.5-5 nM) was determined in 50 mM Tris-HCl buffer, pH 8.0, containing 20 mM NaCl at 37° C., with the addition of approximately 0.1-6.0 μM of the fluorescent substrates. The increase in fluorescence was monitored continually for 5 min in the spectrofluorometer. When necessary, the correction of the fluorescent reading was done using the empiric equation described by Araújo et. al., Biochemistry 25; 8519, 2000. Kinetic data were determined from the initial hydrolysis (consumption of substrate less than 10%) and calculations involving kinetic parameters (Km, Vmáx and kcat) were performed using the Michaelis-Menten equation furnished by the GRAFIT for Windows 3.0 program.
To determine the inhibition kinetics of trypsin with the peptides of the present invention, three substrate concentrations were used: a) corresponding to half of the value of Km (0.8 μM); b) corresponding to the whole value of Km (1.6 μM); c) corresponding to slightly more than double the value of Km (3.5 μM). […] Incubation carried out at 37° C. Tris-HCl buffer, pH 8.0, containing 20 mM NaCl at 37° C. For characterization of enzymatic inhibition, a Lineweaver-Burk plot was employed (1/V vs 1/S), and the value of Ki was determined from the relation between the apparent inhibition constant (Ki(app)) and the value of Km for the substrate: Ki(app)=[I]/[(v0/vi)−1] and Ki=Ki(app)/[(Km/[S])+1] where; [I]=inhibitor concentration; (v0/vi)=ratio of the hydrolysis velocities in the absence and presence of inhibitor, respectively. Km/[S]=ratio between Km of the substrate and substrate concentration.

[1] = test system: leukocyte rolling in post-capillary venules of the cremaster muscle; details: topical, LPS-induced rolling; FIG. 2 and 3
[2] = test system: recruitment of leukocytes in the peritoneal cavity; test: Prevention of peritonitis induced by LPS; format: in vivo, mice; details: 24 h
Experimental: Mice were injected intraperitoneally with 4 nmol or 40 nmol of the peptide identified by SEQ ID NO: 7 dissolved in 500 μL of sterile saline solution, 30 minutes prior to administering intraperitoneal injection of LPS (O55:BR 20 μg/mL, Sigma) diluted in 500 μL of sterile saline solution. Animals injected only with sterile saline were considered controls, 24 h after injection of LPS, the animals were sacrificed with a high dose of chloral hydrate to obtain the washing of the peritoneal cavity to count the number of cells (A), neutrophils (B) and macrophages (C). The material removed from the peritoneum was centrifuged for 10 minutes at 1500 rpm and 4° C., the supernatant was separated and frozen at −20° C. for future analyses, while the remaining material containing the cells was re-suspended in PBS 0.1% BSA. The total count was performed in a Neubauer chamber, For the differential count, an aliquot of the cellular suspension was placed on slides and centrifuged (Citospin), stained with Hema 3 and examined under the optical microscope, counting a total of 300 cells. The absolute number of each cellular population was obtained by multiplication of the percentages by the total number of cells found in the sample volume.

[3] = test system: leukocytes and eosinophils recruited to the alveolar space; test: Chronic asthma induced by ovalbumin, bronchoalveolar lavage cell count; format: in vivo, BALB/c mice
Experimental: (§1) After the 14th day, the animals were submitted to 3 challenges per week with a 1% OVA aerosol, Immunized animals and challenged only with PBS (phosphate buffered saline) were considered controls. To induce chronic asthma, the animals were challenged 3 times a week during 3 consecutive weeks.
(§2) For the aerosol challenge, the animals were placed in a closed plastic box adapted with an ultra-sonic nebulizer (US-800, ICEL) and exposed to inhalation of 2 mL of a 1% solution of ovalbumin (grade V, Sigma) in saline, over 20 minutes, 24 h after the last aerosol challenge, the animals were sacrificed with a high dose of chloral hydrate to obtain the peripheral blood, the Broncho-Alveolar Lavage (BAL) and the pulmonary tissue to count the total number of leukocytes and eosinophils.
(§3) Groups of animals were treated with 4 nmol or 40 nmol of the peptide identified by SEQ ID NO: 7 intranasally and intraperitoneally 30 minutes before each challenge, and orally 1 hour before each challenge. The group of animals with chronic asthma was treated only with 4 nmol or 40 nmol of the peptide identified by SEQ ID NO: 7_intraperitoneally 30 minutes before each challenge.
(§4) The aerial space was washed with three, 1 mL aliquots of HBSS (Hanks Balanced Salt Solution) EDTA (ethylenediaminetetraacetic acid). After collection, the BAL was immediately centrifuged at 800 rpm for 10 minutes, the supernatant discarded, and the cellular button was re-suspended in 1 mL of HBSS 0.1% BSA (bovine serum albumin) to count the cells. The total cells from the BAL were counted in a Neubauer chamber. Aliquots containing 5×10^5 cells were centrifuged on glass slides using a cytocentrifuge, for 5 minutes at 600 rpm. To determine the percentages of the different cellular populations, the slides were stained with Hema 3 and 300 cells were counted in randomly selected fields. The absolute number of each cellular population in the BAL was obtained by multiplication of the percentages by the total number of cells found in the sample volume.

[4] = test system: leukocytes and eosinophils recruited to the alveolar space; test: Acute pulmonary asthma induced by ovalbumin, bronchoalveolar lavage cell count; format: in vivo, BALB/c mice
Experimental: as §1, §2, §3, §4

[5] = 4 or 40 nmol i.p. 30 min before LPS, FIG. 4
[6] = 4 nmol or 40 nmol intraperitoneally, FIG. 6

Compound: CC[C@H](C)[C@@H]1NC(=O)[C@H]([C@@H](C)O)NC(=O)[C@@H](NC(=O)[C@H](CCC(N)=O)NC(=O)[C@H](CCC(=O)O)NC(=O)[C@@H](N)C(C)C)CSSC[C@@H](C(=O)O)NC(=O)[C@H](CC(=O)O)NC(=O)[C@H](CCCCN)NC(=O)[C@H](CCC(=O)O)NC(=O)[C@H](CC(=O)O)NC(=O)CNC(=O)[C@H]([C@@H](C)CC)NC1=O [SEQ ID NO: 2, Val1-Glu2-Gln3-Cys4-Thr5-Ile6-Ile7-Gly8-Asp9-Glu10-Lys11-Asp12-Cys13] (H-VEQCTIIGDEKDC-OH; disulfide 4-13)
- Ki (trypsin): 24 nM

Compound: Cys1-Arg2-Lys3-Met4-Pro5-Gly6-Val7-Lys8-Met9-Cys10 [SEQ ID NO: 12]
- inhibition of leukocyte rolling (in words) [1]: maintained inhibitory activity

Compound: CC[C@H](C)[C@H](N)C(=O)N1CCC[C@H]1C(=O)N[C@@H](CCCNC(=N)N)C(=O)N[C@H]1CSSC[C@@H](C(N)=O)NC(=O)[C@H](CCSC)NC(=O)[C@H](CCCCN)NC(=O)[C@H](C(C)C)NC(=O)CNC(=O)[C@@H]2CCCN2C(=O)[C@H](CCSC)NC(=O)[C@H](CCCCN)NC(=O)[C@H](CCCNC(=N)N)NC1=O [SEQ ID NO: 7, Ile1-Pro2-Arg3-Cys4-Arg5-Lys6-Met7-Pro8-Gly9-Val10-Lys11-Met12-Cys13-NH2] (H-IPRCRKMPGVKMC-NH2; disulfide 4-13)
- prevention of the recruitment of leukocytes in the peritoneal cavity ([2]; 4 nmol and 40 nmol i.p. 30 min before LPS, compared to the control): ~50%
- recruitment of macrophages in the peritoneal cavity [2, 5]: prevented the recruitment
- recruitment of neutrophils in the peritoneal cavity [2, 5]: prevented the recruitment
- effect on recruitment of cells to the lung compared with oral dexamethasone 0.3 mg/Kg [3]: similar
- eosinophils in the bronchoalveolar lavage [3, 6]: decrease in eosinophils
- total number of leukocytes recruited to the alveolar space [3, 6]: provoked a decrease
- effect on recruitment of cells to the lung compared with oral dexamethasone 0.3 mg/Kg [4]: similar
- total number of leukocytes recruited to the alveolar space ([4]; 4 nmol or 40 nmol, all routes (intranasal, intraperitoneal, oral), FIG. 5): provoked a decrease
- eosinophils in the bronchoalveolar lavage ([4]; 4 nmol or 40 nmol, all routes, FIG. 5): absence of eosinophils
- Ki (trypsin): 20 nM

Compound: CC[C@H](C)[C@@H]1NC(=O)[C@H](CCC(=O)O)NC(=O)[C@H](CO)NC(=O)[C@@H](NC(=O)[C@H](CCC(N)=O)NC(=O)[C@H](CCC(N)=O)NC(=O)[C@@H](N)C(C)C)CSSC[C@@H](C(=O)O)NC(=O)[C@@H]2CCCN2C(=O)[C@H](CCCCN)NC(=O)[C@H](C)NC(=O)CNC(=O)[C@H](C)NC1=O [SEQ ID NO: 4, Val1-Gln2-Gln3-Cys4-Ser5-Glu6-Ile7-Ala8-Gly9-Ala10-Lys11-Pro12-Cys13] (H-VQQCSEIAGAKPC-OH; disulfide 4-13)
- Ki (trypsin): 42 nM

Compound: CC[C@H](C)[C@H](NC(C)=O)C(=O)N1CCC[C@H]1C(=O)N[C@@H](CCCNC(=N)N)C(=O)N[C@H]1CSSC[C@@H](C(N)=O)NC(=O)[C@H](CCSC)NC(=O)[C@H](CCCCN)NC(=O)[C@H](C(C)C)NC(=O)CNC(=O)[C@@H]2CCCN2C(=O)[C@H](CCSC)NC(=O)[C@H](CCCCN)NC(=O)[C@H](CCCNC(=N)N)NC1=O [SEQ ID NO: 9, Ac-Ile1-Pro2-Arg3-Cys4-Arg5-Lys6-Met7-Pro8-Gly9-Val10-Lys11-Met12-Cys13-NH2] (Ac-IPRCRKMPGVKMC-NH2; disulfide 4-13)
- Ki (trypsin): 21.8 nM

Compound: CC[C@H](C)[C@H](N)C(=O)N1CCC[C@H]1C(=O)N[C@@H](CCCNC(=N)N)C(=O)N[C@H]1CSSC[C@@H](C(=O)O)NC(=O)[C@H](CCSC)NC(=O)[C@H](CCCCN)NC(=O)[C@H](C(C)C)NC(=O)CNC(=O)[C@@H]2CCCN2C(=O)[C@H](CCSC)NC(=O)[C@H](CCCCN)NC(=O)[C@H](CCCNC(=N)N)NC1=O [SEQ ID NO: 1, Ile1-Pro2-Arg3-Cys4-Arg5-Lys6-Met7-Pro8-Gly9-Val10-Lys11-Met12-Cys13] (H-IPRCRKMPGVKMC-OH; disulfide 4-13)
- Ki (trypsin): 22.5 nM
- type of inhibition of trypsin (trypsin; FIG. 1): simple, competitive inhibition

Compound: CC[C@H](C)[C@H](N)C(=O)N1CCC[C@H]1C(=O)N[C@@H](CCCNC(=N)N)C(=O)N[C@H]1CSSC[C@@H](C(=O)O)NC(=O)[C@H](CCSC)NC(=O)[C@H](CCCCN)NC(=O)[C@H](C(C)C)NC(=O)CNC(=O)[C@@H]2CCCN2C(=O)[C@H](CCSC)NC(=O)[C@H](C)NC(=O)[C@H](CCCNC(=N)N)NC1=O [SEQ ID NO: 6, Ile1-Pro2-Arg3-Cys4-Arg5-Ala6-Met7-Pro8-Gly9-Val10-Lys11-Met12-Cys13] (H-IPRCRAMPGVKMC-OH; disulfide 4-13)
- Ki (trypsin): 24.2 nM

Compound: CC[C@H](C)[C@H](NC(C)=O)C(=O)N1CCC[C@H]1C(=O)N[C@@H](CCCNC(=N)N)C(=O)N[C@H]1CSSC[C@@H](C(=O)O)NC(=O)[C@H](CCSC)NC(=O)[C@H](CCCCN)NC(=O)[C@H](C(C)C)NC(=O)CNC(=O)[C@@H]2CCCN2C(=O)[C@H](CCSC)NC(=O)[C@H](CCCCN)NC(=O)[C@H](CCCNC(=N)N)NC1=O [SEQ ID NO: 8, Ac-Ile1-Pro2-Arg3-Cys4-Arg5-Lys6-Met7-Pro8-Gly9-Val10-Lys11-Met12-Cys13] (Ac-IPRCRKMPGVKMC-OH; disulfide 4-13)
- Ki (trypsin): 24.8 nM

Compound: CC[C@H](C)[C@@H]1NC(=O)[C@H](CCCCN)NC(=O)[C@H](CC(=O)O)NC(=O)[C@@H](NC(=O)[C@H](CCCNC(=N)N)NC(=O)[C@H](Cc2c[nH]cn2)NC(=O)[C@@H](N)CC(C)C)CSSC[C@@H](C(=O)O)NC(=O)[C@@H]2CCCN2C(=O)[C@H](CCCCN)NC(=O)[C@H](C)NC(=O)[C@H](CC(=O)O)NC(=O)[C@H](C)NC1=O [SEQ ID NO: 5, Leu1-His2-Arg3-Cys4-Asp5-Lys6-Ile7-Ala8-Asp9-Ala10-Lys11-Pro12-Cys13] (H-LHRCDKIADAKPC-OH; disulfide 4-13)
- Ki (trypsin): 44 nM

Compound: CC[C@H](C)[C@@H]1NC(=O)[C@H]([C@@H](C)O)NC(=O)[C@@H](NC(=O)[C@H](CCC(N)=O)NC(=O)[C@H](CCC(=O)O)NC(=O)[C@@H](N)C(C)C)CSSC[C@@H](C(=O)O)NC(=O)[C@H](CC(=O)O)NC(=O)[C@H](CCCCN)NC(=O)[C@H](C)NC(=O)[C@H](CC(=O)O)NC(=O)CNC(=O)[C@H]([C@@H](C)CC)NC1=O [SEQ ID NO: 3, Val1-Glu2-Gln3-Cys4-Thr5-Ile6-Ile7-Gly8-Asp9-Ala10-Lys11-Asp12-Cys13] (H-VEQCTIIGDAKDC-OH; disulfide 4-13)
- Ki (trypsin): 63.6 nM
